The results in this text go back to patent publication US9169270B2, “1-phenyl-substituted heterocyclyl derivatives and their use as prostaglandin D2 receptor modulators” (Actelion Pharmaceuticals Ltd., priority 2012, dated 2015).

hCRTH2 receptor, sequence (Q9Y5Y4 whole entry, the tested form may be a part): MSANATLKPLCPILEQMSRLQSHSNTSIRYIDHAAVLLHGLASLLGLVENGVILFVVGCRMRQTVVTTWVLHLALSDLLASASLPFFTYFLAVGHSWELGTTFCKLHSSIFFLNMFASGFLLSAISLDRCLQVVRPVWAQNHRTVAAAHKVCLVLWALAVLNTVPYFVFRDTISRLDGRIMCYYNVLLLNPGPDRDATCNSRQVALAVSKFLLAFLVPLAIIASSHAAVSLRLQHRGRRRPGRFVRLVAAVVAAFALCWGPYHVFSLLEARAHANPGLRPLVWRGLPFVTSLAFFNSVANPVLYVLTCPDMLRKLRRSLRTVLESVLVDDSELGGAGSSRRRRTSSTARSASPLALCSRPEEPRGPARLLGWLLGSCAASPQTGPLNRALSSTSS

The target of this assay is hCRTH2 receptor (Homo sapiens (Human), UniProt Q9Y5Y4). Kind of assay: hCRTH2 receptor membranes radioligand (3H-PGD2) displacement assay. The conditions noted are these: hCRTH2 membrane fragments, Binding-Buffer with 0.1% BSA. The procedure:
Biological Assays: Preparation of hCRTH2 Receptor Membranes and Radioligand Displacement Assay:
First, recombinant HEK293-hCRTH2 cells were detached from culture plates into 5 ml buffer A/plate (Buffer A: 5 mM Tris, 1 mM MgCl2-6H2O pH=7.4) using a rubber policeman. Cells were then transferred into centrifugation tubes and centrifuged for 5 min at 400 g. The cell pellet was resuspended in the same buffer and tubes were frozen at −80° C. Cells were thawed and membrane fragments were generated by homogenization using a polytron homogenizer (30 seconds). The membrane fragments were then centrifuged at 3000 g for 20 minutes and resuspended in buffer C (Buffer C: 75 mM Tris, 25 mM MgCl2, 250 mM Saccharose pH 7.4). Aliquots of membrane fragments were stored at −20° C.
Binding assay was performed in a final assay volume of 250 μl. First, 25 μl of test compound, previously diluted in Binding-Buffer (Binding-Buffer: 50 mM Tris-Base, 100 mM NaCl, 1 mM EDTA, 0.1% BSA (protease free), 0.01% NaN3, 10 mM MnCl2, pH 7.0) was placed into each well. […] Binding assay was started by addition of 100 μl CRTH2 membrane fragments, reaching a final concentration of 20 μg/well. For non-specific binding, PGD2 was added to the reaction mixture to […] final concentration. This assay mix was incubated for 90 minutes at room temperature and then filtered through a GF/C filter 96-well plate which was pre-soaked for 3 hours in 0.5% polyethyleneimine (PEI). The filter-wells were washed three times with ice cold Binding-Buffer. Then, 40 μl of Microscint-40 (Packard) was added to each well and the retained radioactivity quantified in a Topcount (Packard).
`O=C(O)COc1ccc(Cl)cc1C1c2scnc2CCN1C(=O)NCc1ccccc1F` (racemic) [Example 1, (±)-{4-Chloro-2-[5-(2-fluoro-benzylcarbamoyl)-4,5,6,7-tetrahydro-thiazolo[5,4-c]pyridin-4-yl]-phenoxy}-acetic acid] had an IC50 of 9.4 nM.

`O=C(O)COc1ccc(Cl)cc1C1c2scnc2CCN1C(=O)NCc1cccc(F)c1` (racemic) [Example 2, (±)-{4-Chloro-2-[5-(3-fluoro-benzylcarbamoyl)-4,5,6,7-tetrahydro-thiazolo[5,4-c]pyridin-4-yl]-phenoxy}-acetic acid]: the IC50 was found to be 38.9 nM.

As to `O=C(O)COc1ccc(Cl)cc1C1c2scnc2CCN1C(=O)NCc1ccc(F)cc1` (racemic) [Example 3, (±)-{4-Chloro-2-[5-(4-fluoro-benzylcarbamoyl)-4,5,6,7-tetrahydro-thiazolo[5,4-c]pyridin-4-yl]-phenoxy}-acetic acid], the IC50 was determined as 124 nM.

`O=C(O)COc1ccc(Cl)cc1C1c2sc(C(F)(F)F)nc2CCN1C(=O)OCc1ccccc1` (racemic) [Example 12, (±)-4-(2-Carboxymethoxy-5-chloro-phenyl)-2-trifluoromethyl-6,7-dihydro-4H-thiazolo[5,4-c]pyridine-5-carboxylic acid benzyl ester] returned an IC50 of 6.5 nM.

In turn, `CC(C)c1nc2c(s1)C(c1cc(Cl)ccc1OCC(=O)O)N(C(=O)OCc1ccccc1)CC2` (racemic) [Example 13, (±)-4-(2-Carboxymethoxy-5-chloro-phenyl)-2-isopropyl-6,7-dihydro-4H-thiazolo[5,4-c]pyridine-5-carboxylic acid benzyl ester] showed an IC50 of 64.8 nM.

As for `O=C(O)COc1ccc(Cl)cc1C1c2sc(C3CC3)nc2CCN1C(=O)OCc1ccccc1` (racemic) [Example 14, (±)-4-(2-Carboxymethoxy-5-chloro-phenyl)-2-cyclopropyl-6,7-dihydro-4H-thiazolo[5,4-c]pyridine-5-carboxylic acid benzyl ester], the IC50 is 65.7 nM.

`Cc1nc2c(s1)C(c1cc(Cl)ccc1OCC(=O)O)N(C(=O)OCc1ccccc1)CC2` (racemic) [Example 15, (±)-4-(2-Carboxymethoxy-5-chloro-phenyl)-2-methyl-6,7-dihydro-4H-thiazolo[5,4-c]pyridine-5-carboxylic acid benzyl ester] displayed a 50% inhibitory concentration (IC50) of 6.2 nM.

As for `CCc1nc2c(s1)C(c1cc(Cl)ccc1OCC(=O)O)N(C(=O)OCc1ccccc1)CC2` (racemic) [Example 16, (±)-4-(2-Carboxymethoxy-5-chloro-phenyl)-2-ethyl-6,7-dihydro-4H-thiazolo[5,4-c]pyridine-5-carboxylic acid benzyl ester], the IC50 came to 14.2 nM.

`O=C(O)COc1ccc(Cl)cc1C1c2sc(Br)nc2CCN1C(=O)OCc1ccccc1` (racemic) [Example 20, (±)-2-Bromo-4-(2-carboxymethoxy-5-chloro-phenyl)-6,7-dihydro-4H-thiazolo[5,4-c]pyridine-5-carboxylic acid benzyl ester]: the IC50 is 3 nM.

In the case of `O=C(O)COc1ccc(Cl)cc1C1c2scnc2CCN1C(=O)CCOc1ccc(F)cc1` (racemic) [Example 21, (±)-(4-Chloro-2-{5-[3-(4-fluoro-phenoxy)-propionyl]-4,5,6,7-tetrahydro-thiazolo[5,4-c]pyridin-4-yl}-phenoxy)-acetic acid], the IC50 is 19.6 nM.

Take `O=C(O)COc1ccc(Cl)cc1C1c2scnc2CCN1C(=O)[C@@H]1C[C@H]1c1ccccc1C(F)(F)F` (mixture of isomers) [Example 23, (±)-(4-Chloro-2-{trans-5-[2-(2-trifluoromethyl-phenyl)-cyclopropanecarbonyl]-4,5,6,7-tetrahydro-thiazolo[5,4-c]pyridin-4-yl}-phenoxy)-acetic acid]: the IC50 was 6.5 nM.

`O=C(O)COc1ccc(Cl)cc1C1c2scnc2CCN1C(=O)[C@@H]1C[C@H]1c1ccccc1Cl` (mixture of isomers) [Example 24, (±)-(4-Chloro-2-{trans-5-[2-(2-chloro-phenyl)-cyclopropanecarbonyl]-4,5,6,7-tetrahydro-thiazolo[5,4-c]pyridin-4-yl}-phenoxy)-acetic acid] had an IC50 of 7.3 nM.

As to `Cc1ccccc1[C@@H]1C[C@H]1C(=O)N1CCc2ncsc2C1c1cc(Cl)ccc1OCC(=O)O` (mixture of isomers) [Example 25, (±)-{4-Chloro-2-[trans-5-(2-o-tolyl-cyclopropanecarbonyl)-4,5,6,7-tetrahydro-thiazolo[5,4-c]pyridin-4-yl]-phenoxy}-acetic acid], the IC50 turned out to be 6.5 nM.

`COc1ccc2[nH]cc(CCC(=O)N3CCc4ncsc4C3c3cc(Cl)ccc3OCC(=O)O)c2c1` (racemic) [Example 26, (±)-(4-Chloro-2-{5-[3-(5-methoxy-1H-indol-3-yl)-propionyl]-4,5,6,7-tetrahydro-thiazolo[5,4-c]pyridin-4-yl}-phenoxy)-acetic acid] returned an IC50 of 45.1 nM.

The compound `Cc1[nH]c2ccccc2c1CCC(=O)N1CCc2ncsc2C1c1cc(Cl)ccc1OCC(=O)O` (racemic) [Example 27, (±)-(4-Chloro-2-{5-[3-(2-methyl-1H-indol-3-yl)-propionyl]-4,5,6,7-tetrahydro-thiazolo[5,4-c]pyridin-4-yl}-phenoxy)-acetic acid] returned an IC50 of 219 nM.

Consider `Cc1ccccc1CCC(=O)N1CCc2ncsc2C1c1cc(Cl)ccc1OCC(=O)O` (racemic) [Example 29, (±)-{4-Chloro-2-[5-(3-o-tolyl-propionyl)-4,5,6,7-tetrahydro-thiazolo[5,4-c]pyridin-4-yl]-phenoxy}-acetic acid], for which the IC50 is 25.6 nM.

On to `O=C(O)COc1ccc(Cl)cc1C1c2scnc2CCN1C(=O)CCCc1ccccc1F` (racemic) [Example 30, (±)-(4-Chloro-2-{5-[4-(2-fluoro-phenyl)-butyryl]-4,5,6,7-tetrahydro-thiazolo[5,4-c]pyridin-4-yl}-phenoxy)-acetic acid], for which the IC50 was found to be 8.1 nM.

On to `O=C(O)COc1ccc(Cl)cc1C1c2scnc2CCN1C(=O)COCc1ccccc1Cl` (racemic) [Example 31, (±)-(4-Chloro-2-{5-[2-(2-chloro-benzyloxy)-acetyl]-4,5,6,7-tetrahydro-thiazolo[5,4-c]pyridin-4-yl}-phenoxy)-acetic acid], for which the IC50 was 5 nM.

On to `Cc1ccc(OCC(=O)N2CCc3ncsc3C2c2cc(Cl)ccc2OCC(=O)O)c(C)n1` (racemic) [Example 32, (±)-(4-Chloro-2-{5-[2-(2,6-dimethyl-pyridin-3-yloxy)-acetyl]-4,5,6,7-tetrahydro-thiazolo[5,4-c]pyridin-4-yl}-phenoxy)-acetic acid], for which the IC50 came out at 83.2 nM.

Consider `O=C(O)COc1ccc(Cl)cc1C1c2scnc2CCN1C(=O)COc1ccccc1` (racemic) [Example 34, (±)-{4-Chloro-2-[5-(2-phenoxy-acetyl)-4,5,6,7-tetrahydro-thiazolo[5,4-c]pyridin-4-yl]-phenoxy}-acetic acid], for which the IC50 is 87.4 nM.

The compound `C[C@@H](CC(=O)N1CCc2ncsc2C1c1cc(Cl)ccc1OCC(=O)O)c1ccccc1` (mixture of isomers) [Example 35, (±)-{4-Chloro-2-[5-((S)-3-phenyl-butyryl)-4,5,6,7-tetrahydro-thiazolo[5,4-c]pyridin-4-yl]-phenoxy}-acetic acid] gave an IC50 of 355 nM.

`O=C(O)COc1ccc(Cl)cc1C1c2scnc2CCN1C(=O)C1Cc2ccccc2C1` (racemic) [Example 36, (±)-{4-Chloro-2-[5-(indane-2-carbonyl)-4,5,6,7-tetrahydro-thiazolo[5,4-c]pyridin-4-yl]-phenoxy}-acetic acid] came in with an IC50 of 733 nM.

The compound `O=C(O)COc1ccc(Cl)cc1C1c2scnc2CCN1C(=O)CC1(c2ccccc2)CC1` (racemic) [Example 37, (±)-(4-Chloro-2-{5-[2-(1-phenyl-cyclopropyl)-acetyl]-4,5,6,7-tetrahydro-thiazolo[5,4-c]pyridin-4-yl}-phenoxy)-acetic acid] had an IC50 of 130 nM.

Turning to `C[C@H](CC(=O)N1CCc2ncsc2C1c1cc(Cl)ccc1OCC(=O)O)c1ccccc1` (mixture of isomers) [Example 38, (±)-{4-Chloro-2-[5-((R)-3-phenyl-butyryl)-4,5,6,7-tetrahydro-thiazolo[5,4-c]pyridin-4-yl]-phenoxy}-acetic acid], the IC50 worked out at 12.2 nM.

`O=C(O)COc1ccc(Cl)cc1[C@@H]1c2scnc2CCN1C(=O)C[C@H]1OCCc2ccccc21` (racemic) [Example 39, (±)-{4-Chloro-2-[5-((±)-2-isochroman-1-yl-acetyl)-4,5,6,7-tetrahydro-thiazolo[5,4-c]pyridin-4-yl]-phenoxy}-acetic acid] gave an IC50 of 99.1 nM.

In turn, `CC(C)(C)CC(=O)N1CCc2ncsc2C1c1cc(Cl)ccc1OCC(=O)O` (racemic) [Example 40, (±)-{4-Chloro-2-[5-(3,3-dimethyl-butyryl)-4,5,6,7-tetrahydro-thiazolo[5,4-c]pyridin-4-yl]-phenoxy}-acetic acid] had an IC50 of 950 nM.

Regarding `O=C(O)COc1ccc(Cl)cc1C1c2scnc2CCN1C(=O)CC1CC1` (racemic) [Example 41, (±)-{4-Chloro-2-[5-(2-cyclopropyl-acetyl)-4,5,6,7-tetrahydro-thiazolo[5,4-c]pyridin-4-yl]-phenoxy}-acetic acid], the IC50 came out at 83.9 nM.

One may read the IC50 as the concentration that gives 50% inhibition.
